Patent US20180140679A1, “MODULATION OF AXL RECEPTOR ACTIVITY IN COMBINATION WITH CYTOREDUCTIVE THERAPY” (THE BOARD OF TRUSTEES OF THE LELAND STANFORD JUNIOR …, priority 2016, published 2018)
Numbering of substitutions follows the chain as printed. Names may count otherwise.

Key:
4T1 luciferase cells = assay type: in vivo; details: MYD1-72 Fc 1 mg/kg daily, TKIs 12.5 mg/kg twice daily; for reduction in lung metastases compared to vehicle treated mice: ex vivo bioluminescent imaging; for size of primary tumors: three weeks, vs control
Source text: In this model, cells orthotopically implanted in the mammary fat pad generate primary masses that metastasize to the lungs.
Comparison of MYD1-72 Fc with clinical Axl. TKIs There are currently no FDA approved drugs targeting Axl, though several small molecule kinase inhibitors are undergoing clinical trials. BerGenBio's BGB324 (previously Rigel's R428) is the most advanced of these compounds, and the first to be developed prospectively as an Axl inhibitor. […] Furthermore, since TKI's and biologics are fundamentally very different, as are their mechanisms of action, a direct comparison would provide valuable insights into the potential of distinct therapeutic intervention strategies. […] Cells were implanted orthotopically in the mammary fat pad, and primary tumors were allowed to establish prior to treatment. […] This dose for the TKIs was chosen as significant activity has been previously reported at equivalent concentrations.
(§1) Treatment was initiated four days post-surgery.

[1] = test system: phosphorylation of Axl, Mer, Tyro3, and downstream Akt signaling in OVCAR8 cells; assay: Western blot of TAM receptor and Akt phosphorylation in OVCAR8 cells; assay type: cell-based, human
Source text: (§2) Cell lysates subjected to sodium dodecyl sulfate polyacrylamide gel electrophoresis followed by transfer to nitrocellulose membrane. The membranes were then probed with primary antibodies against total Axl (AF154, R&D Systems, INC., Minneapolis, Minn.), phospho-Axl (T702; #5724, CST, Danvers, Mass.), total Akt (#4691 CST, Danvers, Mass.), phosphor-Akt (#4060, CST, Danvers, Mass.), anti-MERTK (#ab52968, Abcam, Cambridge, Mass.), phospho-MERTK (#ab14921 Abcam, Cambridge, Mass.), anti-Tyro3 (#5585, CST, Danvers, Mass.), phospho-Tyro3 (#orb186274, Biorbyt LLC, Berkely, Calif.), Bcl-2 Family Antibody Sampler Kit (#9934, CST, Danvers, Mass.), anti-Chk2 (#sc-5278, Santa Cruz Biotech, INC., Santa Cruz, Calif.), anti-XRCC1 (#2735, CST, Danvers, Mass.), anti-γH2AX (Merck Millipore #05636, Darmstadt, Germany), anti-phospho-ATM (#ab81292, Abcam, Cambridge, Mass.), anti-ATM (#ab78, Abcam, Cambridge, Mass.), anti phospho-ATR (#2853, CST, Danvers, Mass.), anti-ATR (#2790, CST, Danvers, Mass.), anti-Phospho Chk1 (#12302, CST, Danvers, Mass.), anti-Phospho Chk2 (#2197, CST, Danvers, Mass.) and anti-RPA32 (#2208, CST, Danvers, Mass.) at 4° C. overnight. The blots were then washed and probed with HRP conjugated anti-goat (#sc-2020, Santa Cruz Biotech, INC., Santa Cruz, Calif.), or HRP conjugated anti-rabbit (#A16110, Thermo Fisher Scientific, Walthan, Mass.) as appropriate. The blots were developed with Bio-Rad Western C developing reagent (#170-5060 Bio-Rad, Hercules, Calif.) and visualized with Chemidoc digital imager (#1708280, Bio-Rad, Hercules, Calif.).

patients = details: recent phase II trial; cited from earlier work
[2] = test system: LM-P orthotopic pancreatic cancer; assay: LM-P orthotopic pancreatic cancer model; details: immunohistochemistry
Procedure: LMP cells derived from the KRAS/p53 metastatic mouse model were implanted subcutaneously into the flanks of mice and allowed to grow until they reached ˜500 mm^3 in size.
To establish orthotopic tumors, mice harboring subcutaneous tumors were sacrificed and tumors were isolated and cut into small fragments. Laparotomies were then performed and a tumor fragment was secured to the tail of the pancreas.
All procedures involving animals and their care and use were approved by the Institutional Animal Care and Usage Committee of Stanford University. For all in vivo studies, six week old, female nude (nu/nu) mice (Jackson Laboratory, Bar Harbor, Me.) were used. In all studies, animals displaying signs of morbidity were removed from the study immediately. […] Treatment was initiated four days post-inoculation for both studies. […] BGB324 (Selleckchem LLC, Houston, Tex.) and Foretinib (MedChem, Monmouth Junction, N.J.). Small molecules were administered twice daily via oral gavage. […] The orthotropic LM-P pancreatic adenocarcinoma model (a gift from Dr. Edgar Engleman at Stanford University, Stanford, Calif.) was established as previously described. Briefly, 1×10^6 cells were injected subcutaneously into the flanks of nude mice and grown for 2-3 weeks until they reached 500 mm^3. […]

skov3.ip = skov3.ip intraperitoneal ovarian cancer model; assay type: in vivo, mouse xenograft; details: MYD1-72 Fc 1 mg/kg daily, doxorubicin 2 mg/kg twice weekly, three weeks
Source text: At this time, several mice were sacrificed at random to ensure engraftment of diffuse metastatic disease, a hallmark of the human condition. […] After three weeks of treatment, mice were sacrificed and tumor burden was quantified both by counting the number of visible lesions, as well as excising and weighing all diseased tissue.
as §1

[3] = test system: Axl and FLT3 phosphorylation in AML cells; assay: Western blot of Axl and FLT3 phosphorylation in AML cells; assay type: cell-based, human
Source text: as §2

mouse Gas6 = molecular target: T1, mouse Gas6 (mouse, UniProt Q61592 115-674, limits assumed); assay: KinExA equilibrium titration in solution, apparent Kd of the dimeric Fc fusion
T1 construct: Recombinant in KinExA (detected through a 6xHIS tag); also called mGas6
T1 sequence (looked up): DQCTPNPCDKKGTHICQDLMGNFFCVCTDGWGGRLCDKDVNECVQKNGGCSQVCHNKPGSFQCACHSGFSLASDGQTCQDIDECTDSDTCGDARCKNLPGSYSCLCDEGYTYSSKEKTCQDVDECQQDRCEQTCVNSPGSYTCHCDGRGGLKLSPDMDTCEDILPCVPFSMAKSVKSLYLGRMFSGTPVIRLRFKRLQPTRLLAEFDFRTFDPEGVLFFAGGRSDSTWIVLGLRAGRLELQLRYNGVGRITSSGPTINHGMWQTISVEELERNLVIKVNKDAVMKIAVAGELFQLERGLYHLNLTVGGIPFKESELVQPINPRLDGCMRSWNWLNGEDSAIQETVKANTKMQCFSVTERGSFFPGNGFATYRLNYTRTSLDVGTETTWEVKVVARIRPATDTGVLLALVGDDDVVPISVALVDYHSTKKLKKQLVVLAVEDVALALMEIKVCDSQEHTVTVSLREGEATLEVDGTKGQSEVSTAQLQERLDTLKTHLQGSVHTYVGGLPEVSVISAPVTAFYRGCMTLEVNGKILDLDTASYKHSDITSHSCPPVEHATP

Nc1nc(Nc2ccc3c(c2)CC[C@@H](N2CCCC2)CC3)nn1-c1cc2c(nn1)-c1ccccc1CCC2 [BGB324, reference compound]
reduction in lung metastases compared to vehicle treated mice (4T1 luciferase cells): 10%
size of primary tumors (4T1 luciferase cells): showed little effects
pAxl and pAkt levels [1]: short-term inhibition of pAxl but increased pAxl levels at later time points

COc1cc2c(Oc3ccc(NC(=O)C4(C(=O)Nc5ccc(F)cc5)CC4)cc3F)ccnc2cc1OCCCN1CCOCC1 [Foretinib]
reduction in lung metastases compared to vehicle treated mice (4T1 luciferase cells): 55%
size of primary tumors (4T1 luciferase cells): significantly reduced the size of primary tumors
pAxl and pAkt levels [1]: indiscriminately inhibited all TAM receptors
pMer and pTyro3 levels [1]: indiscriminately inhibited all TAM receptors
clinical efficacy (patients): failed to demonstrate efficacy
patients with treatment-related adverse events (patients): 91%

Nc1ccn([C@@H]2O[C@H](CO)[C@@H](O)C2(F)F)c(=O)n1 [Gemcitabine, reference compound]
Ki67 proliferation in primary tumor [2]: small, albeit significant decrease in proliferation

COc1cccc2c1C(=O)c1c(O)c3c(c(O)c1C2=O)C[C@@](O)(C(=O)CO)C[C@@H]3O[C@H]1C[C@H](N)[C@H](O)[C@H](C)O1 [doxorubicin, reference compound]
decrease in tumor burden (by weight) vs controls (skov3.ip): 91%

wildtype Axl Fc: wild-type Axl decoy receptor as Fc fusion
Axl and FLT3 phosphorylation [3]: inhibited Axl and FLT3 phosphorylation

B1: MYD1-Fc (Fc fusion)
chain: APRGTQAEESPFVSNPGNITGARGLTGTLRCQLQVQGEPPEVHWLRDGQILELADSTQTQVPLGEDEQGDWIVASQLRITSLQLSDTGQYQCLVFLGHQTFVSQPGYVRLEGLPYFLEEPEDRTVAANTPFNLSCQAQGPPEPVDLLWLQDAVPLATAPGHGPQRSLHVPGLNKTSSFSCEAHNAKGVTTSRTATITVLPQQPRNLHLVSRQPTELEVAWTPGLSGIYPLTHCTLQAVLSNDGMGIQAGEPDPPEEPLTSQASVPPHQLRLGSLHPHTPYHIRVACTSSQGPSSWTHWLPVETPEGVPLGPPENISATRNGSQAFVHWQEPRAPLQGTLLGYRLAYQGQDTPEVLMDIGLRQEVTLELQGDGSVSNLTVCVAAYTAAGDGPWSLPVPLEAWRPGQAQPVHQLVKEPSTPAFS
notes: Dimeric Fc fusion made in HEK293; MYD1 mutations deduced as MYD1-72 minus A72V; not shown: Fc domain
Kd (mouse Gas6): 1.1 pM

B2: MYD1-72 Fc (Fc fusion)
chain: B1 chain with A54V
notes: Dimeric Fc fusion made in HEK293; also called MYD-72 Fc; second generation Axl decoy receptor; not shown: Fc domain
Kd (mouse Gas6): 0.14 pM
